Results: publication PMC8565515, “Dasabuvir Inhibits Human Norovirus Infection in Human Intestinal Enteroids” (mSphere, 2021)
Counter-ions that a name gives are not always drawn. Like-named read-outs stand apart in the source and are kept apart here.

Experiments:
[1] = tested on: J2 HIE monolayers
[2] = tested on: GII.4 HuNoV; assay: GII.4 HuNoV infection of HIE monolayers, viral genome equivalents by RT-qPCR; assay type: cell-based, human norovirus; conditions: compound 10 μM, n = 1, J2 HIE monolayers, GII.4 HuNoV, 24 hpi, normalized to DMSO control; for activity at 10 µM: Norovirus, 24 h, read-out: (%) HuNoV GEs

| Compound | (%) Cytotoxicity ([1]; human, 24 h, 10 μM) [%] | activity at 10 µM [2] [%] | (%) Cytotoxicity [1] [%] | (%) HuNoV GEs [2] [%] |
| --- | --- | --- | --- | --- |
| C[C@H](Cn1cnc2c(N)ncnc21)OCP(=O)(O)O [Tenofovir] | 0.98 | 56.5 | – | – |
| CCOC(=O)CCc1c(C)nc2c(c(C)nn2-c2ccc(C)cc2)c1C [C430-0518] | – | – | -1.01 | 170.30 |
| Clc1ccccc1C(c1ccccc1)(c1ccccc1)n1ccnc1 [Clotrimazole] | 0.51 | 159 | – | – |
| O=c1[nH]cnc2c1ncn2[C@H]1CC[C@@H](CO)O1 [Didanosine] | -0.0652 | 52.8 | – | – |
| Cc1nn(CCC(=O)Nc2cccc(C#N)c2)c(C)c1S(=O)(=O)N1CCCCC1 [G402-0939] | – | – | – | 147.17 |
| O=C(/C=C/c1ccc(O)cc1)c1ccc(O)cc1O [Isoliquiritigenin] | 0.86 | 172 | – | – |
| C[C@@]1(F)[C@H](O)[C@@H](CO)O[C@H]1n1ccc(=O)[nH]c1=O [PSI6206] | – | – | – | 143.70 |
| CCOCc1nc2c(N)nc3ccccc3c2n1CC(C)(C)O [Resiquimod] | 2.61 | 76.7 | – | – |
| C=C1[C@H](CO)[C@@H](O)C[C@@H]1n1cnc2c(=O)[nH]c(N)nc21 [Entecavir hydrate] | -1.04 | 23.6 | – | – |
| COC1=C2C[C@@H](C)C[C@H](OC)[C@H](O)[C@@H](C)/C=C(\C)[C@H](OC(N)=O)[C@@H](OC)/C=C\C=C(/C)C(=O)NC(=CC1=O)C2=O [Geldanamycin] | 67.53 | 18.6 | – | – |
| COc1cc(NC(=O)Nc2cccc(CNC(=O)O[C@H]3CCOC3)c2)ccc1-c1cnco1 [Merimepodib] | 0.74 | 17 | – | – |
| Nc1ccn([C@@H]2O[C@H](CO)[C@@H](O)[C@@H]2O)c(=O)n1 [Cytarabine] | -0.77 | 31.3 | – | – |
| O=c1[nH]c(=O)n([C@H]2C[C@H](O)[C@@H](CO)O2)cc1F [Floxuridine] | 0.65 | 12.6 | – | – |
| Cc1cn([C@H]2C[C@H](N=[N+]=[N-])[C@@H](CO)O2)c(=O)[nH]c1=O [Zidovudine] | – | 57.6 | – | – |
| CC(C)c1nc(CN(C)C(=O)N[C@H](C(=O)N[C@@H](Cc2ccccc2)C[C@H](O)[C@H](Cc2ccccc2)NC(=O)OCc2cncs2)C(C)C)cs1 [Ritonavir] | 1.11 | 52.7 | – | – |
| C[C@@H]1CCO[C@H]2Cn3cc(C(=O)NCc4ccc(F)cc4F)c(=O)c(O)c3C(=O)N12 [Dolutegravir] | – | 8.52 | – | – |

| Compound | (%) Cytotoxicity ([1]; human, 24 h, 10 μM) [%] | activity at 10 µM [2] [%] | (%) Cytotoxicity [1] [%] | (%) HuNoV GEs [2] [%] |
| --- | --- | --- | --- | --- |
| Nc1ccn([C@@H]2CS[C@H](CO)O2)c(=O)n1 [Lamivudine] | 0.86 | 118 | – | – |
| Cc1c(-c2cnccn2)ssc1=S [Oltipraz] | – | 7.76 | – | – |
| Cc1nc(Nc2ccc(F)cc2)nc(N2CCc3ccccc3C2C)c1C (stereo not shown) [Revaprazan hydrochloride] | 0.20 | 214 | – | – |
| CO[C@H]1/C=C/O[C@@]2(C)Oc3c(C)c(O)c4c(O)c(c(/C=N/N5CCN(C)CC5)c(O)c4c3C2=O)NC(=O)/C(C)=C\C=C\[C@H](C)[C@H](O)[C@@H](C)[C@@H](O)[C@@H](C)[C@H](OC(C)=O)[C@@H]1C [Rifampicin] | 2.64 | 60.2 | – | – |
| CC1(C)S[C@@H]2[C@H](NC(=O)[C@H](NC(=O)N3CCNC3=O)c3ccccc3)C(=O)N2[C@H]1C(=O)O [Azlocillin sodium] | – | 28 | – | – |
| Nc1nc(NC2CC2)c2ncn([C@H]3C=C[C@@H](CO)C3)c2n1 [Abacavir] | 0.27 | 64.9 | – | – |
| Dicurone | – | – | – | 90.75 |
| Cc1cn([C@H]2O[C@@H](CO)[C@H](O)[C@H]2F)c(=O)[nH]c1=O [Clevudine] | -0.09 | 33.8 | – | – |
| Cc1cc(F)c(C(=O)Nc2cccc(-c3nncn3C(C)C)n2)cc1-n1cnc(C2CC2)c1 [Selonsertib] | -2.58 | 48.5 | – | – |
| CCOC(=O)c1ccc(OCCC2CCN(c3ccc(C)nn3)CC2)cc1 [Pirodavir] | -3.64 | 50.5 | – | – |
| C[C@@H]1CC[C@H]2[C@@H](C)C(=O)O[C@@H]3O[C@@]4(C)CC[C@@H]1[C@]32OO4 [Artemisinin] | 1.63 | 51.7 | – | – |
| CC(C)CN(C[C@@H](O)[C@H](Cc1ccccc1)NC(=O)O[C@H]1CO[C@H]2OCC[C@H]21)S(=O)(=O)c1ccc(N)cc1.CCO [Darunavir Ethanolate] | – | – | – | 147.86 |
| Cc1cc(O)cc(C)c1Cl [Chloroxylenol] | – | 65.9 | – | – |
| CC1(C)O[C@H]2CC(=O)OC[C@]23[C@H]2CC[C@@]4(C)[C@H](c5ccoc5)OC(=O)[C@H]5O[C@]54[C@]2(C)C(=O)C[C@@H]13 [Limonin] | 0.73 | 59.9 | – | – |
| C=C(C)[C@@H]1CC[C@]2(C(=O)O)CC[C@]3(C)[C@H](CC[C@@H]4[C@@]5(C)CC[C@H](O)C(C)(C)[C@@H]5CC[C@]43C)[C@@H]12 [Betulinic acid] | – | 16.4 | – | – |
